In patent US8957053B2, “Proliposomal testosterone formulations” (Tesorx Pharma, LLC, priority 2012, dated 2015):

How the values were obtained:
[1] = Solubility in SLS after sonication; type: physicochemical; conditions: 1% w/v SLS, sonication 10 min
Experimental: Solubility of: a) 10 mg pure testosterone; and b) formulation PLF-2 equivalent to 10 mg testosterone in either 0.5%, 1%, or 2% SLS following sonication for 10 min. was determined. For these studies, 10 mg of pure testosterone was weighed and dissolved in either 100 ml of 0.5%, 1%, or 2% (w/v) SLS, respectively, in volumetric flasks. An amount of formulation PLF-2 that contained 10 mg of testosterone was weighed, and sample solutions were prepared in a similar way as that described above for the testosterone control. These solutions were subjected for sonication for 10 min in a bath sonicator. The samples were then filtered and diluted suitably in their respective concentrations of SLS. The amounts of soluble testosterone for each concentration of SLS was determined by using the HPLC assay method described in Comparative Example 2.

[2] = Solubility of testosterone in various buffers; type: physicochemical; conditions: phosphate buffer pH 6.80, 72 h at RT
Experimental: The solubility of testosterone in different media was tested. An amount of testosterone (100 mg) was added to each of four glass vials containing 10 ml of either: a) HCl buffer (pH 1.20), b) Acetate buffer (pH 4.50), c) phosphate buffer solution (PBS) pH 6.80 and d) nano pure water. These samples were subjected for shaking in a water bath for 72 h at RT. The samples were suitably diluted and analyzed by the HPLC assay method described in Comparative Example 2. Solubility of testosterone was high in phosphate buffer pH 6.80.

C[C@]12CC[C@H]3[C@@H](CCC4=CC(=O)CC[C@@]43C)[C@@H]1CC[C@@H]2O [testosterone]
testosterone solubility [1]: high testosterone solubility | Solubility of testosterone [2]: high
